From patent US9023857B2, “Substituted 6-(2-aminobenzylamino)purine derivatives, their use as medicaments and preparations containing these compounds” (Univerzita Palackeho V Olomouci, priority 2009, dated 2015)

Columns and labels:
[1] = test system: human erythroleukaemia K562; assay: In vitro cytotoxic activity (Calcein AM, 72 hours), K562; conditions: K562, 72 h, read-out: Cytotoxicity IC50 K-562
[2] = test system: p53 protein in BT549 (mut p53) breast cancer cell line; assay: p53 protein expression in BT549 cells (immunoblotting); type: cell-based, human; conditions: BT549 (mutant p53), 5 μM, 6, 12 and 24 hrs
Procedure: (a) DO-1, DO-2 and 1801 monoclonal antibodies recognise the N-terminal region of p53 protein, monoclonal antibodies DO-11 and DO-12 recognise different epitopes in the core domain of p53 protein, monoclonal antibodies Bp53-10 and Pab421 recognise the C-terminal region of p53 protein. (b) Monoclonal antibody 118 recognises p21^WAF1.
For direct immunoblotting, total cellular protein lysates were prepared by harvesting cells in hot Laemmli electrophoresis sample buffer. Proteins were then separated by SDS-polyacrylamide gel electrophoresis (SDS-PAGE) on 10% gel and transferred onto a nitrocellulose membrane in Bio.Rad Mini Trans-Blott Electrophoretic Transfer Cell for 2 hrs at 4° C. applying 150 mA in transfer buffer ([…], 190 mM glycine and 20% methanol). Prestained molecular weight markers (Bio-Rad) were run in parallel. […]
First, we determined appropriate concentration of 103 and 105 for our experiments. The MCF-7 (wt p53) cells were treated for 12 hrs with increasing concentrations of 105 ranging from 1 to 100 μM and analysed for p53 protein expression using monoclonal antibody DO-1 (FIG. 3A). […] We analysed the expression of p53 protein in MCF-7 (wt p53), BT549 (mut p53) and BT474 (mut p53) breast cancer cell lines, in HT29 (mut p53) colorectal cancer cell line and in ostaosarcoma cell line HOS (mut p53). […]

[3] = test system: C-terminal domain (CTD) of RNA polymerase II, serine 2 and serine 5; assay: Immunoblotting: phosphorylation of the C-terminal domain of RNA polymerase II; type: cell-based
Procedure: Cell were detached with rubber policeman and washed three times with ice-cold PBS and lysed in buffer (50 mM Tris, pH 7.4, 250 mM NaCl, 5 mM EDTA, 50 mM NaF, 1 mM Na3VO4, 1% Nonidet P40) containing mixture of protease and phosphatase inhibitors (Sigma-Aldrich St Louis, Mo., USA). 20 μg of total proteins were separated by SDS-polyacrylamide gel electrophoresis (SDS-PAGE) on 8% or 10% gels and transferred onto nitrocellulose membranes. Membranes were blocked in 5% milk and 0.1% Tween 20 in PBS and probed overnight with specific monoclonal antibodies or rabbit polyclonal sera. Primary antibodies specific for RNA polymerase II (all from Santa Cruz Biotechnology, California, USA) included: (i) N-20 used at 1 μg/ml, (ii) H14, specific for form phosphorylated at phosphoserine 5, used at 6 μg/ml and (iii) H5, specific for form phosphorylated at phosphoserine 2 used at 4 μg/ml. Additional primary mAb used in immunblots included (iv) anti-p53 (DO-1, in house) used at 1 μg/ml, (v) anti-p21^WAF1 (118, in house), used at 1 μg/ml), (vi) anti-actin (A-2066, Sigma-Aldrich St Louis, Mo., USA) used at 1 μg/ml, (vii) anti-T-antigen (419, in house), used at 1 μg/ml. All primary antibodies were diluted in PBS containing 5% powdered milk; 0.1% Tween 20. Peroxidase conjugated rabbit anti-mouse immunoglobulin or porcine anti-rabbit immunoglobulin antisera (DAKO, Glostrup, Denmark) were used as the secondary antibodies and visualised with ECL reagents (Amersham-Pharmacia, Little Chalfont, UK).
Modulation of expression from the HIV promoter by CDKI treatment may be mediated by transcriptional regulation. At the C-terminus of the largest subunit of RNA Pol II is an important regulatory domain referred to as CTD (C-terminal domain). We therefore investigated the effect of CDKIs on CTD serine 2 and serine 5 phosphorylation. […] Although the functions of CDKs and RNA polymerase II were suppressed, the expression from incorporated viral promoters was enhanced.
Cell were detached with rubber policeman and washed three times with ice-cold PBS and lysed in buffer (50 mM Tris, pH 7.4, 250 mM NaCl, 5 mM EDTA, 50 mM NaF, 1 mM Na3VO4, 1% Nonidet P40) containing mixture of protease and phosphatase inhibitors (Sigma-Aldrich St Louis, Mo., USA). 20 μg of total proteins were separated by SDS-polyacrylamide gel electrophoresis (SDS-PAGE) on 8% or 10% gels and transferred onto nitrocellulose membranes. Membranes were blocked in 5% milk and 0.1% Tween 20 in PBS and probed overnight with specific monoclonal antibodies or rabbit polyclonal sera. […]

[4] = In vitro cytotoxic activity (Calcein AM, 72 hours), BJ; conditions: human, BJ normal fibroblasts
HCMV = assay: Plaque number reduction assay, HCMV on HFFF; type: cell-based, Human cytomegalovirus strain Toledo

## CCC(CO)Nc1nc(NCc2ccccc2N)c2ncn(C(C)C)c2n1 (stereo not shown) [Compound 105, 2-({6-[(2-aminobenzyl)amino]-9-isopropyl-9H-purin-2-yl}amino)butan-1-ol]
[1]
  IC50: 12.8 µM
[2]
  induction of p53: No induction
[3]; 12 hours treatment, cell lines with incorporated SV40, all tested cell lines (FIG. 12A)
  phosphorylation of both serine 2 and serine 5 of RNA polymerase II CTD: inhibited
[3]; COS-1, CV-1 and MCF-7 cells
  levels of serine 2 and serine 5 phosphorylation of RNA polymerase II CTD: substantially reduced
[3]; MCF7 cells treated for 24 h, immunoblot (FIG. 2)
  phosphorylation of CTD of RNA polymerase II: reduced phosphorylation
[4]
  IC50 at 72 h: > 167 µM
HCMV
  inhibition of virus replication (in words): equally sensitive
